Laboratory results from article PMC10714390, “Quinoline Compounds Targeting the c-Ring of ATP Synthase Inhibit Drug-Resistant Pseudomonas aeruginosa” (ACS Infectious Diseases, 2023).
Where “and” joins values, the source holds several entries; their conditions need not be identical. Equal values may be shown once.

Assays:
E. coli (ATCC 25922) = experiment: Antimicrobial susceptibility (broth microdilution), EC 25922; type: cell-based, Escherichia coli; conditions: for MIC: Escherichia coli, ATCC25922, read-out: antibacterial activity (MIC) EC 25922; for antibacterial activity in words, EC 25922: summary of Table 1
Method: (§1) The following are general steps, unless otherwise noted. All steps were completed using aseptic techniques. All media and glassware were sterilized via an autoclave at 121 °C for 60 min. All agitation occurred at 160 rpm in a temperature-controlled console shaker (Excella E25) at 37 °C. Full-strength tryptic soy broth (TSB) was made by dissolving 30 g of BD Bacto TSB powder in 1 L of deionized water. Purchased and acquired bacterial strains used were E. coli (ATCC 25922), P. aeruginosa (ATCC 9027), drug-resistant P. aeruginosa from ATCC Panel MP-23 (BAA 2108, BAA 2109, BAA 2110), and P. aeruginosa efflux knockout GKCW120 (PΔ6)[6] provided by Zgurskaya and co-workers at the University of Oklahoma.
(§2) Susceptibility testing was performed in biological triplicate using the broth microdilution method as outlined by the Clinical and Laboratory Standards Institute. […] Briefly, to each well, 1 μL of compound in DMSO, 89 μL of TSB, and 10 μL of bacterial inoculum, grown from a single colony in 10 mL of TSB for 4–6 h, were added. After incubation for 12–15 h at 37 °C, absorbance at 590 nm was read on a Biotek Synergy HTX Multimode plate reader. Data were processed by background subtracting the media absorbance and then normalizing the data to full bacterial growth with the vehicle only. MIC is defined as the lowest concentration of antibiotic or antibiotic/adjuvant combination that achieves ≥85% growth inhibition, which corresponds to no visible growth.
Initial antibacterial activity screen of compounds 4, 5, and S1-S6
Compounds 4, 5, and S1-S6 were screened for initial antibiotic activity against a susceptible laboratory strain of EC (designated EC 25922), and non-virulent, biofilm forming strain of PA (designated PA 9027), and PD6 (efflux knockout strain6) at 128 µg/mL in DMSO. Sterilization and Antimicrobial Susceptibility Assay procedures utilized were the same as described in the methods.
Table S1. Antibacterial activity screening results for compounds 4, 5, and S1-S6 at 128 µg/mL
Table S1. Antibacterial activity screening results for compounds 4, 5, and S1-S6 at 128 µg/mL.

[1] = test system: drug-resistant P. aeruginosa BAA 2108; experiment: Antimicrobial susceptibility (broth microdilution), BAA 2108; type: cell-based, Pseudomonas aeruginosa; conditions: for MIC: Pseudomonas aeruginosa, BAA2108, read-out: antibacterial activity (MIC) BAA 2108; for antibacterial activity in words, BAA 2108: summary of Table 1
Method: as §1, §2

[2] = test system: drug-resistant P. aeruginosa BAA 2110; experiment: Antimicrobial susceptibility (broth microdilution), BAA 2110; type: cell-based, Pseudomonas aeruginosa; conditions: for MIC: Pseudomonas aeruginosa, BAA2110, read-out: antibacterial activity (MIC) BAA 2110
Method: as §1, §2

PA ATP synthase = biological target: T1, PA ATP synthase (Pseudomonas aeruginosa, UniProt Q9HT15); experiment: NADH-driven ATP synthesis inhibition, PA inverted membrane vesicles; type: biochemical; conditions: for Hill coefficient of dose response fit, PA vesicles: inhibition of ATP synthesis activity; for IC50: inverted membrane vesicles from PA 9027, NADH-driven, end point luminescence assay
T1 construct: Inverted membrane vesicles were prepared from PA 9027; endogenous in cells; host or cells: Pseudomonas aeruginosa ATCC 9027, inverted membrane vesicles
Method: (§3) Vesicles were prepared from P. aeruginosa and transformed E. coli cells as previously described.[22] Briefly, cells were grown in LB liquid medium at 37 °C with shaking and harvested by centrifugation after 7 h of growth. Cultures of transformant E. coli included 100 μg/mL ampicillin. Cells were disrupted in TMG buffer (50 mM Tris-HCl, MgCl2, 10% (v/v) glycerol, pH 7.5) using an Avestin B15 homogenizer at 19,000 psi. After unbroken cells and debris were cleared by centrifugation at 9000g, inverted vesicles were collected by centrifugation at 193,000g, resuspended in TMG buffer, and stored at −80 °C. Protein concentrations were determined using a modified Lowry assay.[25]
(§4) Continuous ATP synthesis activity of inverted membrane vesicles was measured using a luciferin/luciferase luminescence assay as previously described.[22] Inhibition of ATP synthesis activity by test compounds was determined using an end point assay essentially as previously described.[18],[26] In this assay, the synthesis reaction was initiated by 2.5 mM NADH, proceeded for 10 min, and was stopped with 1% trichloroacetic acid, 2 mM CCCP, and 10 mM EDTA. Samples from each reaction were diluted 500-fold prior to the addition of luciferase since quinoline compounds are known to inhibit luciferase.[27] This dilution was sufficient to minimize inhibition of luciferase (Figure S4). Each replicate set included a positive control containing DMSO with no compound and a negative control containing carbonyl cyanide m-chlorophenyl hydrazone. Luminescence values were corrected for the background by subtracting the negative control and then normalized to the positive control within the same replicate. Dose–response curves were fit using eq 1, where activity is the relative ATP synthesis activity, [I] is the concentration of inhibitor in μg/mL, and n is the Hill coefficient. [drawing 1] 1

[3] = biological target: T2, PA ATP synthase cIle65Ala mutant (Pseudomonas aeruginosa, UniProt Q9HT15, I65A); experiment: NADH-driven ATP synthesis inhibition, DK8/pASH20 cI65A membrane vesicles; type: biochemical; conditions: for IC50: ATP synthesis IC50, DK8/pASH20 cI65A vesicles, cI65A mutant, NADH-driven, luminescence assay; for Hill coefficient of dose response fit, DK8/pASH20 cI65A vesicles: inhibition of ATP synthesis activity
T2 construct: expressed in transfected cells; host or cells: E. coli K-12 DK8 transformed with pASH20 carrying mutated atpE
Method: P. aeruginosa (ATCC 9027) was streaked onto a 10% TSB agar plate and incubated at room temperature for 72 h. A single colony was resuspended in 100 μL of H2O, and 5 μL was used as the DNA template for PCR with Q5 polymerase (NEB) and […] each of forward and reverse primers. Primers were complementary to regions flanking the atp operon and included sequences for HindIII and NdeI restriction sites (see the SI for primer sequences). The resulting 6.9 kbp DNA fragment was digested with HindIII and NdeI and ligated into digested vector pBR322 (New England Biolabs). The resultant pASH20(-i) plasmid contains a partial atpI gene. To complete the atpI gene, the HindII-XhoI fragment of pASH20(-i) was replaced with a synthetic fragment with a complete atpI (Twist Bioscience) to yield pASH20. The sequence of the entire operon was verified by Sanger DNA sequencing through the ligation sites. Subunit c mutations were introduced by exchanging the XhoI-BamHI fragment containing atpE with a synthetic fragment containing mutated atpE (Twist Bioscience).
as §3, §4

luciferase = luciferase (Photinus pyralis, UniProt P08659); experiment: Inhibition of luciferase by quinoline compounds; type: biochemical; conditions: after 500-fold dilution; Figure S4
Method: as §4
Table S2: All IC50 values and Hill coefficients for dose response fits of inhibition of ATP synthesis activity. […]
luciferase) at the indicated concentrations, and luminescence was measured after the addition of ATP to […]

Sequence of luciferase (P08659 whole entry): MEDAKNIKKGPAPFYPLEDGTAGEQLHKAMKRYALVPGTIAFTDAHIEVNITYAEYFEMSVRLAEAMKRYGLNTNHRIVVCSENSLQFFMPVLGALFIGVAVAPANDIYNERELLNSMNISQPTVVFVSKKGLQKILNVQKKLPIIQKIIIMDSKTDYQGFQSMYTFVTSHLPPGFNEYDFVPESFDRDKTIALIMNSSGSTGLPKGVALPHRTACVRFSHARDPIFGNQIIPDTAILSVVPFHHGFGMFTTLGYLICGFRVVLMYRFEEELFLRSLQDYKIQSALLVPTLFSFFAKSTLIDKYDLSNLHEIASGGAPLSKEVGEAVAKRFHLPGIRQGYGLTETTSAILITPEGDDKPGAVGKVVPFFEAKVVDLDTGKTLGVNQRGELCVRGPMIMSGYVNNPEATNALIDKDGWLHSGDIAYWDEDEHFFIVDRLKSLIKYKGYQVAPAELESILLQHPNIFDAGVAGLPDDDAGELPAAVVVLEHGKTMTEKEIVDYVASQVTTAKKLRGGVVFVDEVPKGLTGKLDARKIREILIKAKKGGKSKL

With `CN(C)Cc1ccc(CNCc2cc3ccccc3nc2SCc2ccccc2)cc1` [Compound 5, 1-(4-((((2-(Benzylthio)quinolin-3-yl)methyl)amino)methyl)phenyl)-N,N-dimethylmethanamine] the MIC (E. coli (ATCC 25922)) was 64 µg/mL, the “Antibacterial activity screening result, EC 25922” value (E. coli (ATCC 25922); at 128 µg/mL in DMSO) was “I” and the “antibacterial activity in words, EC 25922” value (E. coli (ATCC 25922)) was “more potent”. The MIC [1] was 64 µg/mL, the “antibacterial activity in words, BAA 2108” value [1] was “more potent” and the MIC [2] was over 128 µg/mL. The “antibacterial activity in words, BAA 2110” value ([2]; summary of Table 1) was “inactive”, the “Hill coefficient of dose response fit, PA vesicles” value (PA ATP synthase) was 0.8 and the IC50 (PA ATP synthase) was 1.64 µM. For the same compound, the IC50 [3] was 13.3 µM, the “Hill coefficient of dose response fit, DK8/pASH20 cI65A vesicles” value [3] was 1.7 and the “inhibition of luciferase, in words” value (luciferase) was “did not significantly inhibit”.

For `CSc1nc2ccccc2cc1CNCc1ccc(CN(C)C)cc1` [Compound 4, N,N-Dimethyl-1-(4-((((2-(methylthio)quinolin-3-yl)methyl)amino)methyl)phenyl)methanamine], the MIC (E. coli (ATCC 25922)) was 256 µg/mL, the “antibacterial activity in words, EC 25922” value (E. coli (ATCC 25922)) was “weakly inhibit” and the MIC [1] was 128 to 256 µg/mL. The “antibacterial activity in words, BAA 2108” value [1] was “able to inhibit”, the MIC [2] was over 256 µg/mL and the “Hill coefficient of dose response fit, PA vesicles” value (PA ATP synthase) was 0.8. For the same compound, the IC50 (PA ATP synthase) was 31.3 µM and 31.6 µM, the IC50 [3] was 59.5 µM and 59.7 µM and the “Hill coefficient of dose response fit, DK8/pASH20 cI65A vesicles” value [3] was 1.2. For the same compound, the “inhibition of luciferase, in words” value (luciferase) was “did not significantly inhibit”.
